According to patent US11464763B2, “Parasiticidal compositions comprising an isoxazoline active agent, methods and uses thereof” (BOEHRINGER INGELHEIM ANIMAL HEALTH USA INC., priority 2011, dated 2022):
≈ marks a conversion by molar mass, not a printed value.

Key:
D. variabilis = assay: Efficacious plasma concentration (EC90) against D. variabilis ticks in dogs (Example 13); type: in vivo, Dermacentor variabilis; conditions: for EC90 (concentration required to achieve 90% efficacy): plasma concentration
Procedure: Blood samples were collected from all dogs in the study on Days −6, 0 (at 4 h and 12 h), 1, 2, 9, 16, 23, 30, 36, 44, 51, 58, 64, 72, 79 and 86. Plasma samples were analyzed for the concentration of Compound A using an LC/MS/MS analytical method that was GLP validated for the purpose.
Plasma concentrations of Compound A from dogs in the studies of Examples 1 and 4 were determined according to the description in Example 1, and the plasma concentration versus % efficacy against A. americanum and D. variabilis were fit to a Sigmoidal Emax model. […] Since Compound A is systemically active, the lower concentration of the compound in the plasma required to achieve 90% efficacy from the topical compositions of the invention is surprising and unexpected.

Ctenocephalides felis = assay: Long lasting spot-on efficacy against Ctenocephalides felis fleas in cats (Example 9); type: in vivo
Procedure: The efficacy of spot-on compositions comprising Cmpd. A in DMI at different doses against Ctenocephalides felis fleas in cats was studied. Four treatment groups were formed with five cats per treatment group: Group 1—untreated control; Group 2—Compound A at 5.0% (w/v) in DMI to deliver a dose of 5 mg/kg; Group 3—Compound A at a concentration of 10.0% (w/v) in DMI to deliver a dose of 10 mg/kg; and Group 4—Compound A at a concentration of 15.0% (w/v) in DMI to deliver a dose of 15 mg/kg. Treatment was administered once on Day 0. The cats were each infested with approximately 100 C. felis fleas at each time point evaluated.
Cats in all treatment groups were infested on Days −1, 0 (approx. 12 h following treatment), 7, 28, 49, 70, 91, 105, 119 and 133. Cats were also infested on Days 126 and 140 (Treatment Groups 1 and 2); Days 147, 154, 155, 161, 168 and 175 (Treatment Groups 1, 3 and 4); Days 182, 189 and 197 (Treatment Groups 1 and 4). After each infestation, fleas were removed and counted approximately 48 hours (±3 hours) for most time points.

Question: Which results are given for `O=C(CNC(=O)c1ccc(C2=NOC(c3cc(Cl)cc(C(F)(F)F)c3)(C(F)(F)F)C2)c2ccccc12)NCC(F)(F)F` (centres unmarked) [Compound A, 4-[5-[3-chloro-5-(trifluoromethyl)phenyl]-4,5-dihydro-5-(trifluoromethyl)-3-isoxazolyl]-N-[2-oxo-2-[(2,2,2-trifluoroethyl)amino]ethyl]-1-naphthalanecarboxamide]?
Answer: concentration required to achieve 90% efficacy, lower than the concentration required from oral administration (D. variabilis; dogs, topical vs oral): ~36%; EC90 (concentration required to achieve 90% efficacy) (D. variabilis; dogs, topical compositions, Sigmoidal Emax model): 0.07 µg/mL (≈ 0.112 µM); EC90 (concentration required to achieve 90% efficacy) (D. variabilis; oral dosage form): 0.11 µg/mL (≈ 0.176 µM); efficacy against fleas (Ctenocephalides felis; Group 2 (5 mg/kg), up to Day 121): 90%; % Reduction Fleas (Ctenocephalides felis; Group 2: 5.0% in DMI, 5 mg/kg, Day 0 (12 hr)): 61.1%; % Reduction Fleas (Ctenocephalides felis; Group 2: 5.0% in DMI, 5 mg/kg, Day 2): 100.0%; % Reduction Fleas (Ctenocephalides felis; Group 2: 5.0% in DMI, 5 mg/kg, Day 9): 100.0%; % Reduction Fleas (Ctenocephalides felis; Group 2: 5.0% in DMI, 5 mg/kg, Day 30): 100.0%; % Reduction Fleas (Ctenocephalides felis; Group 2: 5.0% in DMI, 5 mg/kg, Day 51): 100.0%; % Reduction Fleas (Ctenocephalides felis; Group 2: 5.0% in DMI, 5 mg/kg, Day 72): 100.0%; % Reduction Fleas (Ctenocephalides felis; Group 2: 5.0% in DMI, 5 mg/kg, Day 93): 100.0%; % Reduction Fleas (Ctenocephalides felis; Group 2: 5.0% in DMI, 5 mg/kg, Day 107): 100.0%; % Reduction Fleas (Ctenocephalides felis; Group 2: 5.0% in DMI, 5 mg/kg, Day 121): 92.3%; % Reduction Fleas (Ctenocephalides felis; Group 2: 5.0% in DMI, 5 mg/kg, Day 128): 89.1%; % Reduction Fleas (Ctenocephalides felis; Group 2: 5.0% in DMI, 5 mg/kg, Day 135): 88.3%; % Reduction Fleas (Ctenocephalides felis; Group 2: 5.0% in DMI, 5 mg/kg, Day 142): 80.0%; efficacy against fleas (Ctenocephalides felis; Group 3 (10 mg/kg), up to Day 163): 90%; % Reduction Fleas (Ctenocephalides felis; Group 3: 10.0% in DMI, 10 mg/kg, Day 0 (12 hr)): 95.4%; % Reduction Fleas (Ctenocephalides felis; Group 3: 10.0% in DMI, 10 mg/kg, Day 2): 100.0%; % Reduction Fleas (Ctenocephalides felis; Group 3: 10.0% in DMI, 10 mg/kg, Day 9): 100.0%; % Reduction Fleas (Ctenocephalides felis; Group 3: 10.0% in DMI, 10 mg/kg, Day 30): 100.0%; % Reduction Fleas (Ctenocephalides felis; Group 3: 10.0% in DMI, 10 mg/kg, Day 51): 100.0%; % Reduction Fleas (Ctenocephalides felis; Group 3: 10.0% in DMI, 10 mg/kg, Day 72): 100.0%; % Reduction Fleas (Ctenocephalides felis; Group 3: 10.0% in DMI, 10 mg/kg, Day 93): 100.0%; % Reduction Fleas (Ctenocephalides felis; Group 3: 10.0% in DMI, 10 mg/kg, Day 107): 100.0%; % Reduction Fleas (Ctenocephalides felis; Group 3: 10.0% in DMI, 10 mg/kg, Day 121): 100.0%; % Reduction Fleas (Ctenocephalides felis; Group 3: 10.0% in DMI, 10 mg/kg, Day 135): 99.8%; % Reduction Fleas (Ctenocephalides felis; Group 3: 10.0% in DMI, 10 mg/kg, Day 149): 99.5%; % Reduction Fleas (Ctenocephalides felis; Group 3: 10.0% in DMI, 10 mg/kg, Day 155): 50.0%; % Reduction Fleas (Ctenocephalides felis; Group 3: 10.0% in DMI, 10 mg/kg, Day 157): 98.1%; % Reduction Fleas (Ctenocephalides felis; Group 3: 10.0% in DMI, 10 mg/kg, Day 163): 94.5%; % Reduction Fleas (Ctenocephalides felis; Group 3: 10.0% in DMI, 10 mg/kg, Day 170): 87.8%; % Reduction Fleas (Ctenocephalides felis; Group 3: 10.0% in DMI, 10 mg/kg, Day 177): 70.8%; efficacy against fleas (Ctenocephalides felis; Group 4 (15 mg/kg), up to Day 191): 90%; % Reduction Fleas (Ctenocephalides felis; Group 4: 15.0% in DMI, 15 mg/kg, Day 0 (12 hr)): 85.3%; % Reduction Fleas (Ctenocephalides felis; Group 4: 15.0% in DMI, 15 mg/kg, Day 2): 100.0%; % Reduction Fleas (Ctenocephalides felis; Group 4: 15.0% in DMI, 15 mg/kg, Day 9): 100.0%; % Reduction Fleas (Ctenocephalides felis; Group 4: 15.0% in DMI, 15 mg/kg, Day 30): 100.0%; % Reduction Fleas (Ctenocephalides felis; Group 4: 15.0% in DMI, 15 mg/kg, Day 51): 100.0%; % Reduction Fleas (Ctenocephalides felis; Group 4: 15.0% in DMI, 15 mg/kg, Day 72): 100.0%; % Reduction Fleas (Ctenocephalides felis; Group 4: 15.0% in DMI, 15 mg/kg, Day 93): 100.0%; % Reduction Fleas (Ctenocephalides felis; Group 4: 15.0% in DMI, 15 mg/kg, Day 107): 100.0%; % Reduction Fleas (Ctenocephalides felis; Group 4: 15.0% in DMI, 15 mg/kg, Day 121): 100.0%; % Reduction Fleas (Ctenocephalides felis; Group 4: 15.0% in DMI, 15 mg/kg, Day 135): 100.0%; % Reduction Fleas (Ctenocephalides felis; Group 4: 15.0% in DMI, 15 mg/kg, Day 149): 100.0%; % Reduction Fleas (Ctenocephalides felis; Group 4: 15.0% in DMI, 15 mg/kg, Day 155): 78.0%; % Reduction Fleas (Ctenocephalides felis; Group 4: 15.0% in DMI, 15 mg/kg, Day 157): 100.0%
